Tests used:
B16F10 cells = experiment: Growth rate by Trypan blue exclusion, drug scheduling and progenies; type: cell-based, murine
Description: (§1) The standard methanethiosulfonate (MTS)-3-(4,5-dimethylthiazol-2-yl)-5-(3-carboxymethoxyphenyl)-2-(4-sulphophenyl)-2H-tetrazolium inner salt solution assay was performed in order to examine the cytotoxic/cytostatic effect of GC2 on melanoma cells. Briefly, 7.5×10^3 cells were seeded in 96-well microtiter plates (Nunc). After an overnight incubation, serial dilutions of GC2 or DTIC were added in triplicate to a final volume of 100 μl. The blank was represented by a culture medium without cells containing the highest GC2 or DTIC concentration. After 24 h of incubation 20 μl MTS was added to each well and all samples were incubated for 3 h at 37° C. An absorbance of each well was read at 450 nm in a microplate reader. A percentage of cell viability was calculated considering that 100% cell viability was represented by an absorbance of untreated samples (blank absorbance). Alternatively, the number of viable cells was determined by Trypan blue exclusion test. Melanoma cells treated with GC2 were trypsinized and cells negative for blue staining (viable cells) were counted using a hemocytometer.
In order to be successful, chemotherapy schedule can be set based on a type of targeted cells, a rate, at which the cells divide, and a time, at which a given drug is likely to be effective. Melanoma cells have versatile mechanisms to survive treatments with most chemotherapeutical drugs. Whether a specific scheduling of GC2 therapy is important was investigated by studying how a growth rate of melanoma cells is affected by incubation with a single dose of GC2 for a prolonged time period and with multiple GC2 doses freshly added every 24 h. Because of its high proliferation rate, a metastatic cell line B16F10 was selected for these experiments. The cells were cultured for 72 h under the following conditions: 1) in the absence of GC2 (control sample-C), 2) with a single GC2 dose of 6.0 μM (sample-S), and 3) with multiple GC2 doses of 6.0 μM freshly added every 24 h ([…]). A number of viable cells was determined by Trypan blue exclusion test and a growth rate was calculated in order to estimate an anti-proliferative effect of GC2. Under normal drug-free conditions, B16F10 cells approximately double their number every 24 h (FIG. 4A). Incubation with a single dose of GC2 decreased the growth rate from 2.29 to 1.26 for 24 h incubation and from 7.26 to 3.7 for 72 h incubation. […] Cells treated with GC2 freshly added every 24 h had the lowest growth rate of 2.02.
Equal numbers of B16F10 cells previously cultured for 72 h 1) without GC2 (C), 2) in the presence of a single GC2 dose of 6 μM (S) or 3) multiple GC2 doses of 6 μM freshly added every 24 h (S*) were further incubated either without GC2 (0 μM) or with a lower GC2 concentration (3 μM). At the end of a 48 h incubation period a number of viable cells was determined by Trypan blue exclusion test and a percentage of cell growth was calculated considering a cell number cultured with 3 μM of GC2 for 48 h to be 100%. Cells cultured with a single dose of GC2 for 72 h followed by 48 h without the drug proliferated at a rate of 99%. The rate decreased to 70% after the additional 48 h incubation of these cells in the presence of 3 μM GC2 (FIG. 4C). […] The lowest growth rate, (5%) was registered for the cells previously exposed to multiple doses of freshly added drug for 72 h and then further grown for 48 h in the presence of 3 μM GC2.

[1] = Solubility in solvent mixture; type: physicochemical; settings: solvent mixture (GC2 buffer)
[2] = system: MMP-2 secreted by T11 glioblastoma multiform cells; experiment: MMP analysis by SDS-PAGE gelatin zymography; type: cell-based; settings: 20 h
Description: T11 cells were grown in a complete DMEM medium until they reached 80% confluency. The cells were washed using DMEM medium without serum and incubated for 20 h with various concentrations of GC2 shown in preliminary experiments not to affect cell viability. The culture medium was collected, centrifuged at 2000 rpm, for 5 min, to remove the cells in suspension. The culture medium was further concentrated five times by ultrafiltration on centricon membranes (molecular weight cut off 30,000 from Milipore). Three parts of medium containing equal amounts of protein (20 μg) were mixed with one part of Laemmnli buffer without reducing agent. Samples were applied on a gel of 8% polyacrylamide impregnated with 0.5 mg/ml denaturated type I collagen (gelatin) and separated electrophoretically. […]
To investigate if GC2 treatment interferes with secretion of MMPs a glioblastoma multiform cell line, T11 previously tested for its capacity to secrete MMP-2 was used. Cells were cultured for 20 h in the presence of different concentrations of GC2, established by preliminary experiments to be nontoxic for this cell line, and medium was concentrated and analyzed by Sodium Dodecyl Sulphate PolyAcrylamide Gel Electrophoresis (SDS-PAGE) gelatin zymography. […]

B16D2 melanoma cells = experiment: MTS cell viability assay, B16D2; type: cell-based; settings: B16D2, 24 h, read-out: IC50 (concentration reducing number of viable cells by 50%)
Description: Cells were cultured at indicated densities for 24 h, medium was removed and the incubation was continued in a fresh culture medium containing various GC2 or DTIC concentrations. In control experiments, cells were grown in a culture medium containing GC2 buffer.
as §1, with “hemocytometer. […]” for “hemocytometer.”

solubility [1]: good solubility | IC50 (B16D2 melanoma cells): 11 µM
Compound: CC(=O)O.CCCCCCCCCN1[C@@H](CO)[C@@H](O)[C@H](O)[C@@H]1CCCCCCCC [GC2, (2S,3R,4R,5S)-3,4-dihydroxy-N-nonyl-5-octyl-2 hydroxymethylpyrrolidinium acetate]
activity at 3 µM (B16F10 cells; Mus musculus, B16-F10, multiple 6 μM doses 72 h, then 48 h with 3 μM GC2, read-out: growth rate of progenies (% of control growth)): 5% | activity at 6 µM (B16F10 cells; Mus musculus, B16-F10, single 6 μM dose 72 h, then 48 h without drug, read-out: proliferation rate of progenies (% of control growth)): 99% | proliferation rate of progenies (% of control growth) (B16F10 cells; multiple 6 μM doses 72 h, then 48 h without drug): 43% | growth rate (ratio of cell number to initial cell number) (B16F10 cells; multiple 6.0 μM doses freshly added every 24 h, 72 h, control 7.26): 2.02 | proliferation rate of progenies (% of control growth) (B16F10 cells; single 6 μM dose 72 h, then 48 h with 3 μM GC2): 70% | growth rate (ratio of cell number to initial cell number) (B16F10 cells; single dose 6.0 μM, 24 h incubation, control 2.29): 1.26 | growth rate (ratio of cell number to initial cell number) (B16F10 cells; single dose 6.0 μM, 72 h incubation, control 7.26): 3.7 | intensity of the MMP-2 band ([2]; 0.65 μM, 1.25 μM, 2.5 μM and 5 μM): decreasing in a concentration dependent manner | MMP-2 secretion ([2]; 5 μM): total inhibition

Source: patent publication US8957106B2, “Iminosugar treatment of tumors” (The Chancellor, Masters and Scholars of the University of …, priority 2007, dated 2015)
